IC50 data for 30 compounds are collected here from patent US20240308992A1 (Biopolar Youtang(Guangdong) Pharmaceutical Co., Ltd., priority 2021, published 2024).

pIC50: −log10 of the molar value. Bounds are passed on as bounds.

The assay has as its target T1, Drak2 (Homo sapiens, UniProt O94768).
T1 sequence (O94768 1-372): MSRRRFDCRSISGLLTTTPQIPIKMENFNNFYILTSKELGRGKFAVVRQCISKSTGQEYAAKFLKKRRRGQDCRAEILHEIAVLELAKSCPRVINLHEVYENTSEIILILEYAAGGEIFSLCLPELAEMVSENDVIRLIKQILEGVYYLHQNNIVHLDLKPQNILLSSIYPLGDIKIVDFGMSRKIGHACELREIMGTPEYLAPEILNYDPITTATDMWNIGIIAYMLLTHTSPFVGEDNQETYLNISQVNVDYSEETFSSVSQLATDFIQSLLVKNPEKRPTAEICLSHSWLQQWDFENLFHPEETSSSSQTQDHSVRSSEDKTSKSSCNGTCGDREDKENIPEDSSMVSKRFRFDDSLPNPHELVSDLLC
In words: Drak2 activity test, ADP-Glo kinase assay (Promega). Conditions: inhibition of Drak2 kinase activity, 2 h room temperature, activity range classes, read-out: IC50_Drak2. The format is biochemical. For orientation: In ADP-Glo the light output rises with the ADP produced.
On to `COc1cc(-c2cncc(-c3cc(NC(=O)CC4CC(C(C)(F)F)C4)cs3)n2)ccc1C(=O)N(C)C1CCN(C)CC1` (stereo not drawn) [Example B92, 4-(6-(4-(2-(3-(1,1-difluoroethyl)cyclobutyl)acetamido)thiophen-2-yl)pyrazin-2-yl)-2-methoxy-N-methyl-N-(1-methylpiperidin-4-yl)benzamide], for which the pIC50 is 7.00 to 7.96.
Turning to `COc1cc(-c2cncc(-c3cc(NC(=O)CC4CCC4)cs3)n2)ccc1C(=O)N(C)C1CC2(C1)CN(C)C2` [Example B93, 4-(6-(4-(2-cyclobutylacetamido)thiophen-2-yl)pyrazin-2-yl)-2-methoxy-N-methyl-N-(2-methyl-2-azaspiro[3.3]heptan-6-yl)benzamide], the pIC50 is 7.00 to 7.96.
The figure for `COc1cc(-c2cncc(-c3cc(NC(=O)CC4(N)CCC4)cs3)n2)ccc1C(=O)N(C)C1CCN(C)CC1` [Example B94, 4-(6-(4-(2-(1-aminocyclobutyl)acetamido)thiophen-2-yl)pyrazin-2-yl)-2-methoxy-N-methyl-N-(1-methylpiperidin-4-yl)benzamide] is 6.00 to 7.00; for `COc1cc(-c2cncc(-c3cc(NC(=O)C(C)C4CCC4)cs3)n2)ccc1C(=O)N(C)C1CCN(C)CC1` (stereo not drawn) [Example B95, 4-(6-(4-(2-cyclobutylpropanamido)thiophen-2-yl)pyrazin-2-yl)-2-methoxy-N-methyl-N-(1-methylpiperidin-4-yl)benzamide] it is 7.00 to 7.96; for `COc1cc(-c2cncc(-c3cc(NC(=O)CC4CCC4)cs3)n2)ccc1C(=O)N(C)C1CCN(C2CC2)CC1` [Example B96, 4-(6-(4-(2-cyclobutylacetamido)thiophen-2-yl)pyrazin-2-yl)-N-(1-cyclopropylpiperidin-4-yl)-2-methoxy-N-methylbenzamide] it is 7.00 to 7.96.
Take `COc1cc(-c2cncc(-c3cc(NC(=O)CC4CCC4)cs3)n2)ccc1C(=O)N(C)C1CC2(C1)CN(C1CC1)C2` [Example B97, 4-(6-(4-(2-cyclobutylacetamido)thiophen-2-yl)pyrazin-2-yl)-N-(2-cyclopropyl-2-azaspiro[3.3]heptan-6-yl)-2-methoxy-N-methylbenzamide]: the pIC50 is 7.00 to 7.96.
The figure for `COc1cc(-c2cncc(-c3cc(NC(=O)CC4CCC4)cs3)n2)ccc1C(=O)NO` [Example B98, 4-(6-(4-(2-cyclobutylacetamido)thiophen-2-yl)pyrazin-2-yl)-N-hydroxy-2-methoxybenzamide] is more than 8.00.
Turning to `COc1cc(-c2cncc(-c3cc(NC(=O)CC4CC(F)C4)cs3)n2)ccc1C(=O)N(C)C1CC2(C1)CN(C)C2` (stereo not drawn) [Example B99, 4-(6-(4-(2-(3-fluorocyclobutyl)acetamido)thiophen-2-yl)pyrazin-2-yl)-2-methoxy-N-methyl-N-(2-methyl-2-azaspiro[3.3]heptan-6-yl)benzamide], the pIC50 is more than 8.00.
In the case of `COc1cc(-c2cncc(-c3cc(NC(=O)C(C)(C)C4CCC4)cs3)n2)ccc1C(=O)N(C)C1CCN(C)CC1` [Example B100, 4-(6-(4-(2-cyclobutyl-2-methylpropanamido)thiophen-2-yl)pyrazin-2-yl)-2-methoxy-N-methyl-N-(1-methylpiperidin-4-yl)benzamide], the pIC50 is 7.00 to 7.96.
`COc1cc(-c2cncc(-c3cc(NC(=O)CC4CCC4)cs3)n2)ccc1S(=O)(=O)N(C)CCN(C)C` [Example B101, 2-cyclobutyl-N-(5-(6-(4-(N-(2-(dimethylamino)ethyl)-N-methylsulfamoyl)-3-methoxyphenyl)pyrazin-2-yl)thiophen-3-yl)acetamide]: the pIC50 is 7.00 to 7.96.
Turning to `COc1cc(-c2cncc(-c3cc(NC(=O)CC4CC4)cs3)n2)ccc1S(=O)(=O)N(C)CCN(C)C` [Example B102, 2-cyclopropyl-N-(5-(6-(4-(N-(2-(dimethylamino)ethyl)-N-methylsulfamoyl)-3-methoxyphenyl)pyrazin-2-yl)thiophen-3-yl)acetamide], the pIC50 was 7.00 to 7.96.
For `COc1cc(-c2cncc(-c3cc(NC(=O)CC4CC4)cs3)n2)ccc1S(=O)(=O)N(C)C1CCN(C)CC1` [Example B103, 2-cyclopropyl-N-(5-(6-(3-methoxy-4-(N-methyl-N-(1-methylpiperidin-4-yl)sulfamoyl)phenyl)pyrazin-2-yl)thiophen-3-yl)acetamide], the pIC50 was 7.00 to 7.96.
Consider `COc1cc(-c2cncc(-c3cc(NC(=O)CC4CCC4)cs3)n2)ccc1S(=O)(=O)N(C)C1CCN(C)CC1` [Example B104, 2-cyclobutyl-N-(5-(6-(3-methoxy-4-(N-methyl-N-(1-methylpiperidin-4-yl)sulfamoyl)phenyl)pyrazin-2-yl)thiophen-3-yl)acetamide], for which the pIC50 is 7.00 to 7.96.
Regarding `COc1cc(-c2cncc(-c3cc(NC(=O)CC4CCC4)cs3)n2)ccc1S(=O)(=O)N1CCOCC1` [Example B105, 2-cyclobutyl-N-(5-(6-(3-methoxy-4-(morpholinosulfonyl)phenyl)pyrazin-2-yl)thiophen-3-yl)acetamide], the pIC50 is 7.00 to 7.96.
To `COc1ccc(-c2cncc(-c3cc(NC(=O)C4CCC4)cs3)c2C(N)=O)cc1OC` [Example C1, 3-(4-(cyclobutanecarboxamido)thiophen-2-yl)-5-(3,4-dimethoxyphenyl)isonicotinamide] belongs less than 5.00; to `COc1ccc(-c2cncc(-c3cc(NC(=O)C4CCC4)cs3)c2C#N)cc1OC` [Example C2, N-(5-(4-cyano-5-(3,4-dimethoxyphenyl)pyridin-3-yl)thiophen-3-yl)cyclobutanecarboxamide], 5.00 to 6.00.
For the compound `CCCCC(=O)Nc1csc(-c2cncc(-c3ccc(OC)c(OC)c3)c2C(N)=O)c1` [Example C3, 3-(3,4-dimethoxyphenyl)-5-(4-pentanamidothiophen-2-yl)isonicotinamide], the pIC50 was 5.00 to 6.00.
Regarding `CCCCC(=O)Nc1csc(-c2cncc(-c3ccc(OC)c(OC)c3)c2C#N)c1` [Example C4, N-(5-(4-cyano-5-(3,4-dimethoxyphenyl)pyridin-3-yl)thiophen-3-yl)pentanamide], the pIC50 is 5.00 to 6.00.
With `COc1ccc(-c2cncc(NC3CCC(N)CC3)n2)cc1OC` (stereo not drawn) [Example D1, N^1-(6-(3,4-dimethoxyphenyl)pyrazin-2-yl)cyclohexane-1,4-diamine], the pIC50 is less than 5.00.
As to `COc1ccc(-c2cncc(NC3CCC(NC(=O)C4CCC4)CC3)n2)cc1OC` (stereo not drawn) [Example D2, N-(4-((6-(3,4-dimethoxyphenyl)pyrazin-2-yl)amino)cyclohexyl)cyclobutanecarboxamide], the pIC50 was less than 5.00.
In the case of `COc1ccc(-c2cncc(-c3nc(NC(=O)OC(C)(C)C)cs3)n2)cc1OC` [Example D3, tert-butyl (2-(6-(3,4-dimethoxyphenyl)pyrazin-2-yl)thiazol-4-yl)carbamate], the pIC50 is less than 5.00.
With `CCN(CC)C(=O)Nc1csc(-c2cncc(-c3ccc(OC)c(OC)c3)n2)n1` [Example D4, 3-(2-(6-(3,4-dimethoxyphenyl)pyrazin-2-yl)thiazol-4-yl)-1,1-diethylurea], the pIC50 is 5.00 to 6.00.
On to `CCCCC(=O)Nc1csc(-c2ccnc(-c3ccc(C(=O)N(C)C4CCN(C)CC4)c(OC)c3)n2)c1` [Example D5, 2-methoxy-N-methyl-N-(1-methylpiperidin-4-yl)-4-(4-(4-pentanamidothiophen-2-yl)pyrimidin-2-yl)benzamide], for which the pIC50 was 5.00 to 6.00.
Turning to `CCCCC(=O)Nc1csc(-c2cncc(N3CCN(S(C)(=O)=O)CC3)n2)c1` [Example D6, N-(5-(6-(4-(methylsulfonyl)piperazin-1-yl)pyrazin-2-yl)thiophen-3-yl)pentanamide], the pIC50 was 6.00 to 7.00.
Take `CCCCC(=O)Nc1csc(-c2cncc(C3CCN(S(C)(=O)=O)CC3)n2)c1` [Example D7, N-(5-(6-(1-(methylsulfonyl)piperidin-4-yl)pyrazin-2-yl)thiophen-3-yl)pentanamide]: the pIC50 was 5.00 to 6.00.
For the compound `CCCCC(=O)Nc1csc(-c2cncc(C3=CCN(S(C)(=O)=O)CC3)n2)c1` [Example D8, N-(5-(6-(1-(methylsulfonyl)-1,2,3,6-tetrahydropyridin-4-yl)pyrazin-2-yl)thiophen-3-yl)pentanamide], the pIC50 was 5.00 to 6.00.
Regarding `CN1CCC(C(=O)N2CCOc3cc(-c4cncc(-c5cc(NC(=O)CC6CCC6)cs5)n4)ccc32)CC1` [Example E1, 2-cyclobutyl-N-(5-(6-(4-(1-methylpiperidine-4-carbonyl)-3,4-dihydro-2H-benzo[b][1,4]oxazin-7-yl)pyrazin-2-yl)thiophen-3-yl)acetamide], the pIC50 is 7.00 to 7.96.
For `CN1CCC(C(=O)N2CCOc3cc(-c4cncc(-c5cc(NC(=O)CC6CC6)cs5)n4)ccc32)CC1` [Example E2, 2-cyclopropyl-N-(5-(6-(4-(1-methylpiperidin-4-carbonyl)-3,4-dihydro-2H-benzo[b][1,4]oxazin-7-yl)pyrazine-2-yl)thiophene-3-yl) acetamide], the pIC50 was 7.00 to 7.96.
With `COc1cc(-c2cncc(-c3cc(NC(=O)NC4CCC4)cs3)n2)ccc1C(=O)N(C)C1CCN(C)CC1` [Example F1, 4-(6-(4-(3-cyclobutylurea)thiophen-2-yl)pyrazin-2-yl)-2-methoxy-N-methyl-N-(1-methylpiperidin-4-yl) benzamide], the pIC50 was 7.00 to 7.96.
Consider `COc1cc(-c2cncc(-c3cc(OCC[C@H](C)CN)cs3)n2)ccc1C(=O)N(C)C1CCN(C)CC1` [Example G1, (S)-4-(6-(4-(4-amino-3-methylbutoxy)thiophen-2-yl)pyrazin-2-yl)-2-methoxy-N-methyl-N-(1-methylpiperidin-4-yl) benzamide], for which the pIC50 is 6.00 to 7.00.
